System: Human umbilical vein endothelial cells (HUVEC)
Assay: Evaluation of NO-production-promoting activity (NO2/NO3 Assay Kit-FX)
Assay type: cell-based
Settings: 24 hours, sample solution 10 to 1000 μg/mL in medium containing 1% DMSO, culture supernatant
Procedure: The purple-tea sample and the GHG sample obtained in the above example were dissolved in a medium containing 1% DMSO (concentration: 10 to 1000 μg/mL) to prepare a sample solution. A medium containing 1% DMSO was used for a control.
Human umbilical vein endothelial cells (HUVEC) (6.2×10^4 cells/500 μL) were seeded in 24-well plates, pre cultured for 1 day, then the medium was changed (450 μl). After that, a sample solution of 50 μL was added to each well to react for 24 hours. After the reaction, the culture supernatant was subjected to a measurement of a NO-production amount. For the measurement of the NO-production amount, “NO2/NO3 Assay Kit-FX” (trade name, manufactured by Dojindo Molecular Technologies, Inc.) was used. The results are shown in FIG. 2 (purple-tea extract) and FIG. 3 (GHG).
The NO2/NO3 Assay Kit-FX is a kit used for indirectly measuring NO in a sample by the fluorescence method, using the reaction between NO2^− and DAN (2,3-Diaminonaphthalene).

## O=C(OC1OC2COC(=O)c3cc(O)c(O)c(O)c3-c3c(cc(O)c(O)c3O)C(=O)OC2C(O)C1OC(=O)c1cc(O)c(O)c(O)c1)c1cc(O)c(O)c(O)c1 [GHG, 1,2-di-O-galloyl-4,6-O-(S)-hexahydroxydiphenoyl-β-D-glucose]
  NO-production promoting effect (NO2−, NO3− and NO total production): has a NO3− and a NO-total production-promoting effect

Source: patent US20230190854A1, “METHOD OF REDUCING MUSCLE DAMAGE ASSOCIATED WITH INTENSIVE EXERCISE BY ADMINISTERING PURPLE-TEA EXTRACT” (ORYZA OIL & FAT CHEMICAL CO., LTD., priority 2020, published 2023)
